One compound from patent publication US20190167576A1, “USE OF HIGH AFFINITY MONOCLONAL ANTIBODY PRODUCT BINDERS TO INCREASE THE DURATION OF ACTION OF THERAPEUTIC MONOCLONAL ANTIBODY PRODUCTS IN A BIOLOGIC TISSUE” (priority 2016, published 2019) can be followed below.

A value given as a limit tells only on which side of the number the result lay.

The target in this assay is monoclonal antibody products. The note with it: binding to monoclonal antibody products; read-out: dissociation constant (KD).

A word on the Kd: it is a measure of binding affinity in units of concentration. As to `Nc1cccc(Nc2nc(NCCO)nc(NCC(O)CNc3nc(NCCO)nc(Nc4cccc(N)c4)n3)n2)c1` [Compound 1, 1,3-bis({4-[(3-aminophenyl)amino]-6-[(2-hydroxyethyl)amino]-1,3,5-triazin-2-yl}amnio)propan-2-ol], the Kd was < 1 µM.
